According to ChEMBL document CHEMBL1201862, “PubChem BioAssay data set” (2004):
The source made the active and inactive calls.

Tests used:
Paired box protein Pax-8 = Paired box protein Pax-8 (Homo sapiens, UniProt Q06710); experiment: inhibitors of PAX8-driven TPO luciferase reporter, dose response, RMG-I cells, cherry-pick (AID 687027); format: functional, cell-based;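 note: luciferase reporter driven by Pax8 target thyroperoxidase promoter measured by SteadyGlo luminescence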
Fatty acid synthase [1] = target: T1, Fatty acid synthase (Homo sapiens, UniProt P49327); experiment: FAS thioesterase domain inhibitors, dose response, biochemical, endpoint fluorescence intensity, uHTS hits (AID 624327); format: functional;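 note: fluorescence from hydrolysis of an O-methyl fluorescein acyl ester substrate by the enzyme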
Fatty acid synthase [2] = target: T1, Fatty acid synthase; experiment: FAS thioesterase domain inhibitors, dose response, biochemical, kinetic fluorescence intensity (AID 624326); format: functional;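 note: rate of fluorescence rise from hydrolysis of a fluorogenic O-methyl fluorescein ester substrate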
[3] = target: T2, Polyadenylate-binding protein 1 (Homo sapiens, UniProt P11940); experiment: PABP1 MLLE–PAM2 binding inhibitor potency, dose response, biochemical, fluorescence polarization, FITC-PAM2 peptide (AID 602259); format: functional; settings: read-out: IC50_Mean
[4] = target: T2, Polyadenylate-binding protein 1; experiment: PABP1 MLLE–PAM2 interaction inhibitors, dose response, miRNA deadenylation inhibitor project, biochemical, fluorescence polarization, Cy5-PAM2 peptide, secondary (AID 602260); format: functional; settings: read-out: IC50_Mean
[5] = cytotoxicity toward NIH3T3 fibroblasts, dose response, counter-screen, cell-based, ATP luminescence, mouse fibroblasts (AID 2010); format: functional;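 note: cells exposed to compound for about 90 hours before reading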
cells = format: functional
[6] = inhibitors of intracellular T. cruzi replication, confirmation, NIH3T3 host cells, beta-gal luminescence (AID 2044); format: functional, cell-based;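 note: intracellular parasites grown in NIH/3T3 mouse fibroblasts as host cells; luminescent beta-galactosidase reporter signal from transgenic T. cruzi replicating inside host cells; inhibitors lower the luminescence signal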
INS1 = experiment: beta cell apoptosis inhibitors, cytokine rescue, dose response, luminescence, retest (AID 449756); format: functional, cell-based; settings: Rattus norvegicus;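 note: cell death triggered by IL-1 beta plus TNF-alpha plus IFN-gamma mixture; protective hits raise ATP signal compared with cytokine alone wells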
[7] = target: FAD-linked sulfhydryl oxidase ALR (Homo sapiens, UniProt P55789); experiment: inhibitors of human ALR sulfhydryl oxidase, dose response, biochemical, H2O2 detection, luminescence, cherry-pick (AID 493248)
[8] = target: T3, Corticotropin-releasing factor receptor 2/Corticotropin-releasing factor-binding protein (Homo sapiens, UniProt P24387+Q13324); experiment: Dose Response confirmation of uHTS hits for small molecule antagonists of the CRF-binding protein and CRF-R2 receptor complex.; format: functional; settings: read-out: IC50_Mean
T3 sequence (Q13324 whole entry): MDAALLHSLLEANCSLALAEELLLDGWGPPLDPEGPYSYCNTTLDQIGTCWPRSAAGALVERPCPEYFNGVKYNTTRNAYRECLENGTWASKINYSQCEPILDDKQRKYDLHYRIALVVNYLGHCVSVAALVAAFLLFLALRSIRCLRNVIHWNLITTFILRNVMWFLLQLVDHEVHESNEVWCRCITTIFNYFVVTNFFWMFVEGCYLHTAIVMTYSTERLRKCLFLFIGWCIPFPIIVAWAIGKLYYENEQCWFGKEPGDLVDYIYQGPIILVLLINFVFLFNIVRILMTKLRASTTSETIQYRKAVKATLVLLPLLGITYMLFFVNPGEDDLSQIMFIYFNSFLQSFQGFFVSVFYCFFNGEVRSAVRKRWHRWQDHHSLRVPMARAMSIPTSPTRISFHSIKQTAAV
T3 sequence (P24387 whole entry): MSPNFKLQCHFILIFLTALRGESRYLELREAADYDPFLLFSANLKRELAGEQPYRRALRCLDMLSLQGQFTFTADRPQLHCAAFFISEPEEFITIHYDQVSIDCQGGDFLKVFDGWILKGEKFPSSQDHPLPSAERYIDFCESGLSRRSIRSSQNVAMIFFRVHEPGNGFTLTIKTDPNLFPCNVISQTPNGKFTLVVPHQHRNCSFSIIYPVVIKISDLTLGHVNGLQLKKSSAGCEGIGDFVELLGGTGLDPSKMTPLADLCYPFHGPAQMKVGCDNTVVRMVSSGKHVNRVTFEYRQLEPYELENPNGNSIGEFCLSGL

[9] = target: T3, Corticotropin-releasing factor receptor 2/Corticotropin-releasing factor-binding protein; experiment: activators of CRF receptor 2 with binding protein – uHTS hits, confirmation (AID 602473); format: functional; settings: read-out: EC50_Mean
[10] = target: T4, Heat shock factor protein 1 (Mus musculus, UniProt P38532); experiment: HSF1 potentiators in luciferase reporter cells, confirmation, cell-based, NIH3T3, luminescence, dose retest (AID 435004); format: functional;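 note: stress induced by proteasome inhibitor MG132 added 30 min after compound; luciferase reporter driven by HSF1 response element in NIH3T3 cells; actives raise luminescence as potentiators of the MG132 stress response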
T4 sequence (P38532 whole entry): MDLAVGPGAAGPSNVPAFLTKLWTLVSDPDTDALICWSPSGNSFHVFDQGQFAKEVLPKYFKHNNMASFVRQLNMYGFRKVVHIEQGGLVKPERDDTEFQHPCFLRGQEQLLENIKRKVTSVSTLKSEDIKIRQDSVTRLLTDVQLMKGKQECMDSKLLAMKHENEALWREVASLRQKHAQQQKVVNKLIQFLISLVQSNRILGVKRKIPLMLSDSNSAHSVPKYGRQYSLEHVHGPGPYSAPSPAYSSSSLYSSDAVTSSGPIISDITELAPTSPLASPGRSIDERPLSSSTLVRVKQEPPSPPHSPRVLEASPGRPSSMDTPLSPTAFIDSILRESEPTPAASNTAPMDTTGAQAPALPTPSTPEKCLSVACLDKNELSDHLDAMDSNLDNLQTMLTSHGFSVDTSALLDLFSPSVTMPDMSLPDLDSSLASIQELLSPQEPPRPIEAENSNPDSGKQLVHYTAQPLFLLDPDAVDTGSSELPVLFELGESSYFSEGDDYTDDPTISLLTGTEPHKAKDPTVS

[11] = growth suppression of PTEN-null colon cells, dose response, cell-based, HCT116 PTEN knockout (AID 1047); format: functional;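 note: HCT116 colon tumor cells with PTEN knocked out; cells exposed to compound for 60 hours before readout; potency for loss of cell viability measured by luminescence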
[12] = growth suppression of beta-catenin-knockout colon cells, dose response, cell-based, HCT116, human colon tumor (AID 1045); format: functional;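 note: HCT116 colon tumor cells with beta catenin knocked out; cells exposed to compound for 60 hours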
[13] = inhibitors of SNCA 5'UTR-driven reporter translation, confirmation, H4 neuroglioma cells, luminescence (AID 1988); format: functional, cell-based
[14] = inhibitors of firefly luciferase expression or activity, dose response, H4 neuroglioma cells, luminescence (AID 1990); format: functional, cell-based
[15] = Luminescence Cell-Based Dose Response HTS to Identify Inhibitors of 5'UTR Stem-Loop Driven Prion Protein mRNA Translation in H4 Neuroglioblastoma Cells. [Related pubchem assays: 1827 (Project Summary), 1813 (Primary HTS)]; format: functional
Protein skinhead-1 = target: T5, Protein skinhead-1 (Caenorhabditis elegans, UniProt P34707); format: functional
T5 sequence (P34707 whole entry): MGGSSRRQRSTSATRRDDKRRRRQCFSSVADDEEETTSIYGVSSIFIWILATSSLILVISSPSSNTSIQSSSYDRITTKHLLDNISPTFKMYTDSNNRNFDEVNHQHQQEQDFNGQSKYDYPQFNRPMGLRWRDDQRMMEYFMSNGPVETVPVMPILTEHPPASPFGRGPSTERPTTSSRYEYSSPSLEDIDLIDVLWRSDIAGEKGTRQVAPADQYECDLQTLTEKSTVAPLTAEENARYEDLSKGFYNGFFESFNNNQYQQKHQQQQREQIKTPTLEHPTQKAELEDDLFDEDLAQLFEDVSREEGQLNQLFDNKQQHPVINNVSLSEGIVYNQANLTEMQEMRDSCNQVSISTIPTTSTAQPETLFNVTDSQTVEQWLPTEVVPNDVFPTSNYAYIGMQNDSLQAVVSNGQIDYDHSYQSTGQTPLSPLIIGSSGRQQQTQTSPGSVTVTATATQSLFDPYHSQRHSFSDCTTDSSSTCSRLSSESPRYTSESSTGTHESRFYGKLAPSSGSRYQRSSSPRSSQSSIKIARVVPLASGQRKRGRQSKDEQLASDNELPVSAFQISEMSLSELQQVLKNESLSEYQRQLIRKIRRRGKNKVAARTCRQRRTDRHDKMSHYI

Chain of FAD-linked sulfhydryl oxidase ALR (P55789 whole entry): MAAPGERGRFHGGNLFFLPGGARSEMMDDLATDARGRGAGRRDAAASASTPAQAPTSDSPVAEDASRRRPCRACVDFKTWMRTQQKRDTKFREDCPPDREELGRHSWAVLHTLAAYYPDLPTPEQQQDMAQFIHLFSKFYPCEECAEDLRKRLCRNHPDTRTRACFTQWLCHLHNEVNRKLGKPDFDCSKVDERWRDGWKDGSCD
T2 sequence (P11940 whole entry): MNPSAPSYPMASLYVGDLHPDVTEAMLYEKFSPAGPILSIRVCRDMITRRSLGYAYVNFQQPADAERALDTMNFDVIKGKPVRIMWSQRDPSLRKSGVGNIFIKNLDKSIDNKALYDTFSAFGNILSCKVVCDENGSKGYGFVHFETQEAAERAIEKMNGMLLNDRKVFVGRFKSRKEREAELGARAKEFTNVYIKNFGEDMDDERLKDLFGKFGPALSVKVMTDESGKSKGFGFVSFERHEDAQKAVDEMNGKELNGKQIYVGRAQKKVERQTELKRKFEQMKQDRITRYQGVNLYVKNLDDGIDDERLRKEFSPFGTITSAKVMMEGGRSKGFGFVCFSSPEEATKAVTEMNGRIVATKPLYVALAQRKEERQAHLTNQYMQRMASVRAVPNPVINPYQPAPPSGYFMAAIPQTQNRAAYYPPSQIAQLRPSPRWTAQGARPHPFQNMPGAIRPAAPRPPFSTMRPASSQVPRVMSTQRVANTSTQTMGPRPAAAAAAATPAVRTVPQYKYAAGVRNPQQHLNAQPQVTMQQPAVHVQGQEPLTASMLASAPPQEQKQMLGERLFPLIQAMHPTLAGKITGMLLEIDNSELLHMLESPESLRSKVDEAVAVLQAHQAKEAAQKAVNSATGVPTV
T1 sequence (P49327 whole entry, the tested form may be a part): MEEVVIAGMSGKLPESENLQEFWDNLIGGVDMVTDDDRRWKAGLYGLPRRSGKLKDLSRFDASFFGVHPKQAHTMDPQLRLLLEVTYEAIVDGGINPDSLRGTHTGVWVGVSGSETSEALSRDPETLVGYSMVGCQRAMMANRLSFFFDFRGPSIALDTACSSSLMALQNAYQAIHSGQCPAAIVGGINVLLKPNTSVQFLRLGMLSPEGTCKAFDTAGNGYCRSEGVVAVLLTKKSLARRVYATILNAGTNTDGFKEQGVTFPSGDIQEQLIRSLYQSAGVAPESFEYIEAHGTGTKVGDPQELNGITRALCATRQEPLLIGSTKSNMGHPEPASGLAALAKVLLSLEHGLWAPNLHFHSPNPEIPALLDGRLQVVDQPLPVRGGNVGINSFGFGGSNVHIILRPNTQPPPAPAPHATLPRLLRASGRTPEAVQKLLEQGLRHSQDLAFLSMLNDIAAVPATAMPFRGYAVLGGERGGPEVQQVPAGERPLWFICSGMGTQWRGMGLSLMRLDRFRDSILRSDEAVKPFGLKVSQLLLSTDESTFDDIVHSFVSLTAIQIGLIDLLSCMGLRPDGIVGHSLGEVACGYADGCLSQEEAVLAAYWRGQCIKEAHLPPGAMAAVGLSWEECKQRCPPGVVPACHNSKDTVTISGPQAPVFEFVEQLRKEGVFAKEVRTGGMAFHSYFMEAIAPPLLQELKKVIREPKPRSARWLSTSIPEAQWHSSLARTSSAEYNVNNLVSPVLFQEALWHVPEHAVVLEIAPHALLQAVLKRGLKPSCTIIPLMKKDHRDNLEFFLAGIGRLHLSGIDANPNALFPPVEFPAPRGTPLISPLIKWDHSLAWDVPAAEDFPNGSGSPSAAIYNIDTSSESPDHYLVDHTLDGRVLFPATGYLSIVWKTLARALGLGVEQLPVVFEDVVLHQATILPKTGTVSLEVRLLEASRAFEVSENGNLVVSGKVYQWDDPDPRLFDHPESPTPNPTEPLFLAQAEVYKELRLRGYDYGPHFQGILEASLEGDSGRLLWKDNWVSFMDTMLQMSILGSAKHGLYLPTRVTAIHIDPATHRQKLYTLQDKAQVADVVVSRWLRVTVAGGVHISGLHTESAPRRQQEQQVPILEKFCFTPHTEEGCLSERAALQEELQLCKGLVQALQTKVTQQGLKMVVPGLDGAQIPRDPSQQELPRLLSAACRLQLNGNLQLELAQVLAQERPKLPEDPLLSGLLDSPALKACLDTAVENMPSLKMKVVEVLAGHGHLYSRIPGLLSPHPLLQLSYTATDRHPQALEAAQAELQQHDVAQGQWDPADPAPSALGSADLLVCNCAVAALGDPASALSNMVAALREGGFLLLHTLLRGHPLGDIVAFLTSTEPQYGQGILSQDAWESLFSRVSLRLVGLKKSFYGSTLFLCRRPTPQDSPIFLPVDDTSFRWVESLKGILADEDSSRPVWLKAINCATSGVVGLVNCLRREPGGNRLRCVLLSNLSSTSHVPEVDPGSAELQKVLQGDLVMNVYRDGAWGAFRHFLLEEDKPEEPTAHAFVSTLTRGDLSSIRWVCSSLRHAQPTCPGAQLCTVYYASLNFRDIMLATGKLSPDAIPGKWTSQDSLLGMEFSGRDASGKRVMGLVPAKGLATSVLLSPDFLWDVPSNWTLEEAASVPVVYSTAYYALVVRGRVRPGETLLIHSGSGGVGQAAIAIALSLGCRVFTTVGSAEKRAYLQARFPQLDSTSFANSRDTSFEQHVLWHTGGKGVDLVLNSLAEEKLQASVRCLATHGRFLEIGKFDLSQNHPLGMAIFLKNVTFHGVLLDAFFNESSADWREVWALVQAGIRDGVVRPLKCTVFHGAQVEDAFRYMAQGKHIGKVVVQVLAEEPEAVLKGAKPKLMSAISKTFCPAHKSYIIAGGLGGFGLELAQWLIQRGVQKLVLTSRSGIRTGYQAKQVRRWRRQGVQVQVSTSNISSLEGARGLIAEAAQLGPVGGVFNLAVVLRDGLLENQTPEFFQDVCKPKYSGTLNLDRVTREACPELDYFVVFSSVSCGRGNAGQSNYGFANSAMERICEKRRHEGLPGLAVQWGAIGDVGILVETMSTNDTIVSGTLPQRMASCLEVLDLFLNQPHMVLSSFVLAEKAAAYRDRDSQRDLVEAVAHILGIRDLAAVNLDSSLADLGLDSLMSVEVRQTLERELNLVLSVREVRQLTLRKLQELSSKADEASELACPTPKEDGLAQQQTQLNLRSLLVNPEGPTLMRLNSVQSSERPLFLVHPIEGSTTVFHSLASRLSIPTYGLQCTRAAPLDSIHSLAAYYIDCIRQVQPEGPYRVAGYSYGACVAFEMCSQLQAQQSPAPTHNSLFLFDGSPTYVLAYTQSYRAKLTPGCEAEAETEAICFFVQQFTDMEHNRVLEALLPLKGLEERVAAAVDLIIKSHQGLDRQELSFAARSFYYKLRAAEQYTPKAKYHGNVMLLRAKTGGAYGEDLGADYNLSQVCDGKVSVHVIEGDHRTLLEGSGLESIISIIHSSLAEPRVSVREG
Chain of Paired box protein Pax-8 (Q06710 whole entry, the tested form may be a part): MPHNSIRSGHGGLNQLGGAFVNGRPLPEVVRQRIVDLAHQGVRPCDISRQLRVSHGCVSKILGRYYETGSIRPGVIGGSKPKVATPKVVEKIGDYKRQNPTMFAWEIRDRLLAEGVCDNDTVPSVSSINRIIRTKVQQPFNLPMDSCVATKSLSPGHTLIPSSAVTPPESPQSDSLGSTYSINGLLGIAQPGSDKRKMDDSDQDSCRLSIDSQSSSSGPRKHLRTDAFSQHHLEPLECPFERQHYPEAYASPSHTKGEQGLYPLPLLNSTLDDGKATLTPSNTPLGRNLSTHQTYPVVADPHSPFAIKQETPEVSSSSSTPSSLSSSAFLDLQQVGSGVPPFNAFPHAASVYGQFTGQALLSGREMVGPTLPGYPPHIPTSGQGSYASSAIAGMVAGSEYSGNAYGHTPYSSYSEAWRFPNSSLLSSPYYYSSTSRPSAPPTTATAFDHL

Compound: C[C@H](CO)N1C[C@H](C)[C@H](CN(C)Cc2ccc(Cl)c(Cl)c2)OCCCC[C@H](C)Oc2ccc(NC(=O)Nc3ccccc3)cc2C1=O
- AC50 (Paired box protein Pax-8): 11.9 µM (active)

Compound: COc1ccc(C(=O)OCC(=O)Nc2ccccc2)cc1[N+](=O)[O-]
- IC50 (Fatty acid synthase [1]): 7.38 µM (active)
- IC50 (Fatty acid synthase [2]): 9.96 µM (active)

Compound: c1ccc(Cc2nnc3sc(-c4ccncc4)nn23)cc1
- IC50 [3]: > 66 µM (inactive)
- IC50 [4]: > 66 µM (inactive)

Compound: CC(=O)Nc1ccc(NC(=O)c2cc([N+](=O)[O-])cc([N+](=O)[O-])c2)cc1
- EC50 [5]: > 60 µM (not active)
- IC50 (cells): 13.9 µM (active)
- EC50 [6]: 1.63 µM (active)

Compound: O=C(OCc1nnc(-c2ccccc2)o1)c1cc([N+](=O)[O-])ccc1Cl
- IC50 (cells): 11.8 µM (active)

Compound: CN1C[C@H](C(=O)N[C@]2(C)O[C@@]3(O)[C@@H]4CCCN4C(=O)[C@H](Cc4ccccc4)N3C2=O)CC2c3cccc4[nH]cc(c34)C[C@H]21 (stereo not given in full)
- IC50 (Fatty acid synthase [1]): 9.27 µM (active)
- IC50 (Fatty acid synthase [2]): 15.6 µM (active)

Compound: CCCOc1ccc(Cc2c(Cl)nc(SC)nc2NC)cc1
- AC50 (INS1): 3.53 µM (active)

Compound: CC(=O)c1cccc(OC(=O)Oc2cccc(C(C)=O)c2)c1
- IC50 (Fatty acid synthase [1]): 10.5 µM (active)
- IC50 (Fatty acid synthase [2]): 6.11 µM (active)

Compound: COc1ccc(C2C=C(c3ccc(C)cc3)Nc3ncnn32)cc1 (stereo not given)
- IC50 [3]: > 66 µM (inactive)
- IC50 [4]: > 66 µM (inactive)

Compound: N#Cc1cccc(-c2ccc3c(c2)[C@@H]2[C@@H](CCN2S(=O)(=O)c2ccc(F)cc2)[C@@H](CO)N3)c1
- AC50 (Paired box protein Pax-8): 6.61 µM (active)

Compound: COc1ccc([C@H]2CC(=O)C=C(c3ccc(C)c([N+](=O)[O-])c3)C2)cc1
- IC50 (Fatty acid synthase [1]): 2.65 µM (active)
- IC50 (Fatty acid synthase [2]): 2.14 µM (active)

Compound: C[C@@H]1CCCCO[C@@H](CN(C)C(=O)C2CCCCC2)[C@H](C)CN([C@H](C)CO)C(=O)c2cc(NC(=O)Nc3ccc(F)cc3)ccc2O1
- AC50 (Paired box protein Pax-8): 8.22 µM (active)

Compound: O=C(NC(=S)Nc1cc([N+](=O)[O-])ccc1O)c1cccnc1
- IC50 [3]: > 66 µM (inactive)
- IC50 [4]: > 66 µM (inactive)

Compound: Cc1occc(=O)c1OC(=O)Nc1ccc(Cl)c(Cl)c1
- AC50 (INS1): 5.88 µM (active)

Compound: Cc1ccc(Oc2ccc(S(=O)(=O)Nc3ccc(C(=O)O)cc3)cc2)cc1
- AC50 [7]: 0.714 µM (active)

Compound: COC(=O)C1CCN(C(=O)COC(=O)c2cc([N+](=O)[O-])ccc2N2CCOCC2)CC1
- IC50 (Fatty acid synthase [1]): 5.73 µM (active)
- IC50 [8]: > 47.1 µM (inactive)
- IC50 (Fatty acid synthase [2]): 3.96 µM (active)
- EC50 [9]: > 53 µM (inactive)

Compound: O=S(=O)(O)c1ccc(N2N=C(c3ccccc3)CC2c2ccccc2)cc1 (stereo not given)
- AC50 [7]: 10.9 µM (active)

Compound: O=C(c1cccs1)N1CCN=C1SCc1cccnc1
- AC50 [7]: 1.27 µM (active)

Compound: O=C(Nc1nnc(-c2ccccc2Cl)o1)c1ccco1
- IC50 (cells): 11.8 µM (active)

Compound: CC(C)(C)c1ccc(OCCSc2nc3ccccc3n2CC(=O)O)cc1
- IC50 (Fatty acid synthase [1]): 2.39 µM (active)
- IC50 (Fatty acid synthase [2]): 2.14 µM (active)

Compound: Cc1ccc(S(=O)(=O)N(C)C)cc1NC(S)=NC(C)CCCC(C)C (stereo not given)
- IC50 (Fatty acid synthase [1]): 12.3 µM (active)
- IC50 (Fatty acid synthase [2]): 9.82 µM (active)
- EC50 [10]: > 260 µM (inactive)

Compound: CCN(CC)c1ccc(NS(=O)(=O)c2cn(C)c(=O)n(C)c2=O)c(C)c1
- AC50 [7]: 0.789 µM (active)

Compound: CCCc1nnc(NC(=O)c2cc3ccccc3oc2=O)s1
- IC50 (cells): 2.83 µM (active)

Compound: CCOC(=O)N1CCN(Cc2c(O)ccc3ccccc23)CC1
- IC50 [3]: > 66 µM (inactive)
- IC50 [4]: > 66 µM (inactive)

Compound: CNC(=S)NN=C(C)c1ccc(OC)cc1O
- IC50 [3]: > 66 µM (inactive)
- IC50 [4]: > 66 µM (inactive)

Compound: O=C(COc1ccc(Cl)cc1Cl)Nn1c(=S)[nH]c2ncccc2c1=O
- IC50 [3]: > 66 µM (inactive)
- IC50 [4]: > 66 µM (inactive)

Compound: C[C@H]1CCCCO[C@@H](CN(C)S(=O)(=O)c2cccs2)[C@@H](C)CN([C@@H](C)CO)C(=O)c2cc(NC(=O)NC3CCCCC3)ccc2O1
- AC50 (Paired box protein Pax-8): 4.79 µM (active)

Compound: Cc1cc(N2CCN(S(=O)(=O)c3ccc(Cl)cc3)CC2)c2ccccc2n1
- AC50 (INS1): 6.39 µM (active)
- EC50 [11]: 26.3 µM (active)
- EC50 [12]: 24.9 µM (active)

Compound: O=C(COc1ccc(C(=S)N2CCOCC2)cc1Cl)Nc1ccccc1Cl
- IC50 [3]: > 66 µM (inactive)
- IC50 [4]: > 66 µM (inactive)

Compound: O=C(COC(=O)c1cc([N+](=O)[O-])ccc1N1CCCC1)Nc1ccccc1OC(F)F
- IC50 (Fatty acid synthase [1]): 8.72 µM (active)
- IC50 (Fatty acid synthase [2]): 9.1 µM (active)

Compound: O=C(NC1CCCCC1)C1CC(=O)N(c2cccc([N+](=O)[O-])c2)C1 (stereo not given)
- IC50 (Fatty acid synthase [1]): 3.47 µM (active)
- IC50 (Fatty acid synthase [2]): 1.89 µM (active)

Compound: CCN(CC(=O)Nc1c(F)cccc1F)C(=O)Cc1ccc2c(c1)CCC2
- IC50 [3]: > 66 µM (inactive)
- IC50 [4]: > 66 µM (inactive)

Compound: CCn1c2ccccc2c2nnc(SCc3ccc(C(=O)OC)o3)nc21
- IC50 [3]: > 66 µM (inactive)
- IC50 [4]: > 66 µM (inactive)

Compound: COc1cc(CNC(C)c2ccccc2)cc(Br)c1OCc1ccc(F)cc1 (stereo not given)
- EC50 [13]: 17.7 µM (active)
- EC50 [14]: 19.2 µM (active)
- EC50 [15]: > 120 µM (not active)
- EC50 [5]: > 60 µM (not active)
- AC50 (INS1): 6.99 µM (active)
- EC50 [6]: 2.41 µM (active)
- IC50 (Protein skinhead-1): 7.7 µM (active)
